Structures are written as SMILES.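 In this assay, cells in 96-well plates receive the compound at five concentrations for 48 hours. Endpoints are linearly interpolated between the surrounding concentrations. TGI marks complete inhibition of growth.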

Among the test systems are K-562 leukemia; SR leukemia; SK-OV-3 ovarian; ACHN renal; MALME-3M melanoma; M14 melanoma; UACC-257 melanoma; HT29 colon; MOLT-4 leukemia; OVCAR-3 ovarian; SN12C renal.
Assay in all cases: NCI-60 cell line screen, 48 h

Consider `COc1ccc(CNc2nc(NCc3ccc(OC)c(OC)c3)nc(NC3CCCCC3)n2)cc1`, for which the TGI in the assay on K-562 leukemia, in the assay with SR leukemia, in the assay on SK-OV-3 ovarian, with ACHN renal, in the assay with MALME-3M melanoma and in the assay with M14 melanoma was more than 100 µM throughout. For the same molecule, the TGI with UACC-257 melanoma, in the assay with HT29 colon, in the assay with MOLT-4 leukemia, in the assay with OVCAR-3 ovarian and in the assay on SN12C renal was more than 100 µM each time.

Consider `COC(=O)c1cc2c(n1S(=O)(=O)c1ccc(C)cc1)C(=O)C(=O)c1[nH]cc(C(=O)OCc3ccccc3)c1-2`, for which the TGI in the assay with K-562 leukemia was more than 100 µM; with SR leukemia it was 0.802 µM; in the assay with SK-OV-3 ovarian, 2.13 µM; in the assay with ACHN renal, 0.682 µM; with MALME-3M melanoma, 0.115 µM; in the assay with M14 melanoma, 0.167 µM. The TGI was 0.112 µM in the assay on UACC-257 melanoma; 1.15 µM in the assay on HT29 colon; 0.944 µM in the assay with MOLT-4 leukemia; 0.0913 µM with OVCAR-3 ovarian; 0.241 µM in the assay on SN12C renal.

For the molecule `Clc1cc(OC2C3CC4CC(C3)CC2C4)nc(Cl)n1` (configuration not stated), the TGI with K-562 leukemia was 24.1 µM; in the assay with SR leukemia it was 11.7 µM; with SK-OV-3 ovarian, more than 100 µM; with ACHN renal it was 32.8 µM; with MALME-3M melanoma it was 30.1 µM; with M14 melanoma, 32.5 µM. The TGI in the assay with UACC-257 melanoma stood at 27.4 µM; with HT29 colon, 30.5 µM; with MOLT-4 leukemia, 34.8 µM; in the assay on OVCAR-3 ovarian, 35.2 µM; in the assay with SN12C renal, 31 µM.

As to `C[C@]12CC[C@H](O)CC1=CC[C@@H]1C2CC[C@]2(C)C(=O)N(N)C(=O)CC12` (some centres not stated), the TGI with K-562 leukemia, with SR leukemia, with SK-OV-3 ovarian, with ACHN renal, with MALME-3M melanoma and in the assay on M14 melanoma was more than 100 µM in each case. Moreover, the TGI with UACC-257 melanoma, in the assay on HT29 colon, with MOLT-4 leukemia, in the assay with OVCAR-3 ovarian and with SN12C renal was more than 100 µM each time.

With `O=C1/C(=C/c2ccc(O)cc2)CC/C1=C\c1ccc(O)cc1`, the TGI in the assay on K-562 leukemia, with SR leukemia, in the assay on SK-OV-3 ovarian, in the assay with ACHN renal, in the assay on MALME-3M melanoma and with M14 melanoma was more than 100 µM throughout. For the same molecule, the TGI with UACC-257 melanoma was more than 100 µM; with HT29 colon, more than 100 µM; in the assay with MOLT-4 leukemia it was more than 52.8 µM; in the assay on OVCAR-3 ovarian, more than 100 µM; in the assay with SN12C renal, more than 100 µM.

For the molecule `O=[N+]([O-])C(=C1NCCN1)/C(Cl)=C(\Cl)Br`, the TGI was 31.2 µM in the assay on K-562 leukemia; 55.4 µM in the assay on SR leukemia; more than 100 µM in the assay on SK-OV-3 ovarian; more than 100 µM in the assay with ACHN renal; more than 61.7 µM with MALME-3M melanoma; more than 100 µM in the assay with M14 melanoma. The TGI was more than 87.3 µM in the assay on UACC-257 melanoma; more than 59 µM with HT29 colon; 65.7 µM in the assay with MOLT-4 leukemia; 38.7 µM in the assay with OVCAR-3 ovarian; more than 100 µM with SN12C renal.

For `CN1CCN([C@H]2C[C@H]3[C@@H]4CC=C5C[C@@H](O)CC[C@]5(C)[C@H]4CC[C@]3(C)C2=O)CC1`, the TGI with K-562 leukemia is more than 100 µM; with SR leukemia, 70.1 µM; in the assay with SK-OV-3 ovarian it was more than 100 µM; in the assay on ACHN renal it was more than 100 µM; in the assay with MALME-3M melanoma, more than 100 µM; in the assay on M14 melanoma, more than 100 µM. Also, the TGI with UACC-257 melanoma, in the assay with HT29 colon, in the assay on MOLT-4 leukemia, in the assay with OVCAR-3 ovarian and in the assay with SN12C renal was more than 100 µM each time.

Consider `O=c1[nH]cc(N=Cc2cc(Cl)cc(Cl)c2O)c(=O)[nH]1`, for which the TGI in the assay with K-562 leukemia was more than 100 µM; in the assay on SR leukemia, 57.1 µM; in the assay on SK-OV-3 ovarian, 53.9 µM; in the assay on ACHN renal, 76.1 µM; in the assay on MALME-3M melanoma it was 49.9 µM; in the assay on M14 melanoma, 47.8 µM. In addition, the TGI in the assay on UACC-257 melanoma is 83.8 µM; in the assay with HT29 colon, 60.8 µM; in the assay with MOLT-4 leukemia it was 69.7 µM; with OVCAR-3 ovarian, 47.1 µM; in the assay with SN12C renal, more than 100 µM.

For `CCOC(=O)c1c2ccccc2n2c(N)c(C(N)=O)nnc12`, the TGI with K-562 leukemia is more than 100 µM; in the assay with SR leukemia it was more than 100 µM; in the assay with SK-OV-3 ovarian it was 37.6 µM; with ACHN renal, 26.6 µM; in the assay with MALME-3M melanoma, more than 100 µM; in the assay with M14 melanoma, more than 100 µM. Besides, the TGI in the assay on UACC-257 melanoma, with HT29 colon, in the assay on MOLT-4 leukemia, with OVCAR-3 ovarian and in the assay with SN12C renal was more than 100 µM each time.

Consider `Oc1cccc2c(Cl)ccnc12`, for which the TGI in the assay on K-562 leukemia is 5.96 µM; in the assay with SR leukemia it was 9.57 µM; in the assay with SK-OV-3 ovarian, 96.9 µM; in the assay with ACHN renal, more than 47.7 µM; with MALME-3M melanoma, 25.4 µM; in the assay with M14 melanoma it was 13.4 µM. The TGI with UACC-257 melanoma is 12.1 µM; in the assay on HT29 colon, 33.6 µM; with MOLT-4 leukemia, 4.19 µM; in the assay with OVCAR-3 ovarian it was 3.19 µM; with SN12C renal it was more than 55.2 µM.

With `CC[C@@]1(C[C@H]2C[C@@]3(C(=O)OC)c4[nH]c5ccccc5c4CCN3C2=O)COC2(CCCCC2)O1`, the TGI in the assay on K-562 leukemia, in the assay on SR leukemia, with SK-OV-3 ovarian, in the assay on ACHN renal, in the assay on MALME-3M melanoma and in the assay with M14 melanoma was more than 100 µM each time. The TGI in the assay on UACC-257 melanoma was 64.2 µM; in the assay on HT29 colon, more than 100 µM; with MOLT-4 leukemia, more than 100 µM; with OVCAR-3 ovarian, more than 100 µM; in the assay with SN12C renal, more than 100 µM.

On to `COc1c(C)c(C/C=C(\C)CCCCO[Si](c2ccccc2)(c2ccccc2)C(C)(C)C)c(OC)c(OC)c1OC`, for which the TGI is more than 46.4 µM in the assay on K-562 leukemia; more than 46.4 µM in the assay on SR leukemia; more than 46.4 µM with SK-OV-3 ovarian; 25.1 µM in the assay with ACHN renal; more than 100 µM with MALME-3M melanoma; more than 46.4 µM in the assay with M14 melanoma. The TGI in the assay on UACC-257 melanoma was more than 46.4 µM; in the assay on HT29 colon it was more than 46.4 µM; in the assay with MOLT-4 leukemia it was more than 46.4 µM; in the assay with OVCAR-3 ovarian, more than 46.4 µM; in the assay with SN12C renal, more than 46.3 µM.

The values are drawn from PubChem BioAssay (NCI).
